This passage reports EC50 and inhibition results from patent publication US10188634B2, “3-(3H-imidazo[4,5-C]pyridin-2-yl)-1 H-pyrazolo[4,3-B]pyridines and therapeutic uses thereof” (Samumed, LLC, priority 2015, dated 2019).

Some results are limits rather than exact numbers.

Type in all cases: cell-based
The subject of one assay is SW480 colon cancer cells. Description: Cell viability assay (CellTiter-Blue) in SW480 colon cancer cells. The conditions noted are these: Homo sapiens, 96 h; for EC50: four days incubation, CellTiter-Blue cell viability; for inhibition at 10 µM: four days, CellTiter-Blue, read-out: percent inhibition at 10 μM (given for EC50 of >10 μM). The procedure, abridged: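 About 2×10^3 SW480 colon cancer cells per well were exposed to compound (8-point 1:3 dilutions, 10 μM to 0.004 μM) for four days at 37 °C. Viability was read by CellTiter-Blue resazurin reduction (~3 h, Ex 560/Em 590). EC50 from nonlinear regression; above 10 μM, % inhibition at 10 μM is reported.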

Assay [1] deals with LL29 cells (primary human fibroblasts derived from IPF patients) treated with TGF-β1, α-smooth muscle actin. Description: Inhibition of the fibrotic process: αSMA staining in TGF-β1 treated primary human fibroblasts from IPF patients (LL29 cells). The note with it: Fibroblast, 96 h; for EC50: LL29 cells treated with TGF-β1 (20 ng/mL), 4 days; for inhibition at 10 µM: LL29 cells treated with TGF-β1, 4 days, read-out: percent inhibition in brackets (given for EC50 >10 μM).

The next assay has as its system IL-6 in THP-1 cells. Kind of assay: Inhibition of IL-6 in LPS-stimulated THP-1 human monocyte cells (HTRF). The note with it: IL-6 HTRF; for EC50: 500 ng/mL LPS, 22 hours; for inhibition at 10 µM: LPS, read-out: percent inhibition in brackets (given for EC50 >10 μM). The procedure, abridged:
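THP-1 cells, serum-reduced (1% FBS) for 24 h, were exposed to compound (1:3, 10-point series from 10 μM; 0.1% DMSO) for 2 h, then 500 ng/mL LPS for 22 h at 37° C. Secreted IL-6 measured by HTRF (665/620 ratio), normalised to DMSO; EC50 by four-parameter fit, else % inhibition at 10 μM.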

Consider `CCCC(=O)Nc1cncc(-c2ccc3[nH]nc(-c4nc5c(-c6ccsc6)cncc5[nH]4)c3n2)c1` [Compound 269, N-(5-(3-(7-(Thiophen-3-yl)-3H-imidazo[4,5-c]pyridin-2-yl)-1H-pyrazolo[4,3-b]pyridin-5-yl)pyridin-3-yl)butyramide], for which the EC50 in the assay on SW480 colon cancer cells is 3.44 µM; in assay [1], 7.23 µM; in the assay with IL-6 in THP-1 cells it was more than 10 µM. For the same compound, in the assay with IL-6 in THP-1 cells, the inhibition at 10 µM was 45.9%.
As to `O=C(CC1CCNCC1)Nc1cncc(-c2ccc3[nH]nc(-c4nc5c(-c6ccsc6)cncc5[nH]4)c3n2)c1` [Compound 629, 2-(Piperidin-4-yl)-N-(5-(3-(7-(thiophen-3-yl)-3H-imidazo[4,5-c]pyridin-2-yl)-1H-pyrazolo[4,3-b]pyridin-5-yl)pyridin-3-yl)acetamide], the values for the inhibition at 10 µM with SW480 colon cancer cells and in the assay on IL-6 in THP-1 cells were 2.8% and 45.5%, respectively. Further, the EC50 was more than 10 µM with SW480 colon cancer cells, 2.54 µM in assay [1] and more than 10 µM in the assay with IL-6 in THP-1 cells.
Consider `CC(C)Nc1cncc(-c2ccc3[nH]nc(-c4nc5c(-c6cc(F)cc(NCCN(C)C)c6)cncc5[nH]4)c3n2)c1` [Compound 432, N^1-(3-Fluoro-5-(2-(5-(5-(isopropylamino)pyridin-3-yl)-1H-pyrazolo[4,3-b]pyridin-3-yl)-3H-imidazo[4,5-c]pyridin-7-yl)phenyl)-N^2,N^2-dimethylethane-1,2-diamine], for which the EC50 came out at 5.36 µM in the assay on SW480 colon cancer cells, 6.41 µM in assay [1] and 2.29 µM with IL-6 in THP-1 cells.
Take `Fc1cccc(-c2cncc3[nH]c(-c4n[nH]c5ccc(-c6cncc(CN7CCC(F)(F)C7)c6)nc45)nc23)c1` [Compound 26, 5-(5-((3,3-Difluoropyrrolidin-1-yl)methyl)pyridin-3-yl)-3-(7-(3-fluorophenyl)-3H-imidazo[4,5-c]pyridin-2-yl)-1H-pyrazolo[4,3-b]pyridine]: the values for the EC50 (in the assay on SW480 colon cancer cells; in assay [1]; with IL-6 in THP-1 cells) were 0.98 µM, 6.22 µM and more than 10 µM, respectively. Besides, in the assay on IL-6 in THP-1 cells, the inhibition at 10 µM was determined as 21%.
Regarding `O=C(CC1CCNCC1)Nc1cncc(-c2ccc3[nH]nc(-c4nc5c(-c6ccccn6)cncc5[nH]4)c3n2)c1` [Compound 565, 2-(Piperidin-4-yl)-N-(5-(3-(7-(pyridin-2-yl)-3H-imidazo[4,5-c]pyridin-2-yl)-1H-pyrazolo[4,3-b]pyridin-5-yl)pyridin-3-yl)acetamide], the inhibition at 10 µM with SW480 colon cancer cells came out at 5.1%; in the assay on IL-6 in THP-1 cells it was 34.7%. The EC50 in the assay with SW480 colon cancer cells was more than 10 µM; in assay [1] it was 0.839 µM; in the assay with IL-6 in THP-1 cells it was more than 10 µM.
Regarding `CN(C)c1cncc(-c2ccc3[nH]nc(-c4nc5c(-c6cccc(F)c6)cncc5[nH]4)c3n2)c1` [Compound 7, 5-(3-(7-(3-Fluorophenyl)-3H-imidazo[4,5-c]pyridin-2-yl)-1H-pyrazolo[4,3-b]pyridin-5-yl)-N,N-dimethylpyridin-3-amine], the values for the EC50 (in the assay with SW480 colon cancer cells; in assay [1]; with IL-6 in THP-1 cells) were 0.86 µM, more than 10 µM and 0.341 µM, respectively. In addition, the inhibition at 10 µM in assay [1] is 0%.
As for `CC(C)(C)C(=O)Nc1cncc(-c2ccc3[nH]nc(-c4nc5c(-c6ccc(F)cc6)cncc5[nH]4)c3n2)c1` [Compound 36, N-(5-(3-(7-(4-Fluorophenyl)-3H-imidazo[4,5-c]pyridin-2-yl)-1H-pyrazolo[4,3-b]pyridin-5-yl)pyridin-3-yl)pivalamide], the EC50 with SW480 colon cancer cells is 6.23 µM; in assay [1] it was 1.22 µM; in the assay on IL-6 in THP-1 cells it was more than 10 µM. Also, the inhibition at 10 µM with IL-6 in THP-1 cells was determined as 35.9%.
`CN(C)c1cncc(-c2ccc3[nH]nc(-c4nc5c(N6CCCCC6)cncc5[nH]4)c3n2)c1` [Compound 175, N,N-dimethyl-5-(3-(7-(piperidin-1-yl)-3H-imidazo[4,5-c]pyridin-2-yl)-1H-pyrazolo[4,3-b]pyridin-5-yl)pyridin-3-amine]: the figures for the EC50 (in the assay with SW480 colon cancer cells; in assay [1]; with IL-6 in THP-1 cells) were 3.84 µM, 1.31 µM and 0.122 µM, respectively.
Turning to `O=C(Nc1cncc(-c2ccc3[nH]nc(-c4nc5c(-c6ccc(Cl)s6)cncc5[nH]4)c3n2)c1)C1CCC1` [Compound 1011, N-(5-(3-(7-(5-Chlorothiophen-2-yl)-3H-imidazo[4,5-c]pyridin-2-yl)-1H-pyrazolo[4,3-b]pyridin-5-yl)pyridin-3-yl)cyclobutanecarboxamide], the 50% effective concentration (EC50) was 2.51 µM in the assay on SW480 colon cancer cells, 1.05 µM in assay [1] and more than 10 µM with IL-6 in THP-1 cells. Also, the inhibition at 10 µM in the assay on IL-6 in THP-1 cells was found to be 32.4%.
Take `CC(C)Nc1cncc(-c2ccc3[nH]nc(-c4nc5c(-c6cccnc6)cncc5[nH]4)c3n2)c1` [Compound 96, N-Isopropyl-5-(3-(7-(pyridin-3-yl)-3H-imidazo[4,5-c]pyridin-2-yl)-1H-pyrazolo[4,3-b]pyridin-5-yl)pyridin-3-amine]: the values for the EC50 (in the assay with SW480 colon cancer cells; in assay [1]; with IL-6 in THP-1 cells) were 6.19 µM, 3.09 µM and 1.75 µM, respectively.
As for `CC(C)CC(=O)Nc1cncc(-c2ccc3[nH]nc(-c4nc5c(-c6ccc(Cl)s6)cncc5[nH]4)c3n2)c1` [Compound 992, N-(5-(3-(7-(5-Chlorothiophen-2-yl)-3H-imidazo[4,5-c]pyridin-2-yl)-1H-pyrazolo[4,3-b]pyridin-5-yl)pyridin-3-yl)-3-methylbutanamide], the values for the inhibition at 10 µM with SW480 colon cancer cells and with IL-6 in THP-1 cells were 25.1% and 29.8%, respectively. In addition, the EC50 was more than 10 µM with SW480 colon cancer cells, 2.29 µM in assay [1] and more than 10 µM in the assay on IL-6 in THP-1 cells.
For the compound `CN(C)Cc1cncc(-c2ccc3[nH]nc(-c4nc5c(-c6cccc(F)c6)cncc5[nH]4)c3n2)c1` [Compound 13, 1-(5-(3-(7-(3-Fluorophenyl)-3H-imidazo[4,5-c]pyridin-2-yl)-1H-pyrazolo[4,3-b]pyridin-5-yl)pyridin-3-yl)-N,N-dimethylmethanamine], the figures for the EC50 (in the assay on SW480 colon cancer cells; in assay [1]; with IL-6 in THP-1 cells) were 0.784 µM, 0.479 µM and 1.54 µM, respectively.
For `CC(C)(C)C(=O)Nc1cncc(-c2ccc3[nH]nc(-c4nc5c(-c6ccc(Cl)s6)cncc5[nH]4)c3n2)c1` [Compound 998, N-(5-(3-(7-(5-Chlorothiophen-2-yl)-3H-imidazo[4,5-c]pyridin-2-yl)-1H-pyrazolo[4,3-b]pyridin-5-yl)pyridin-3-yl)pivalamide], the figures for the inhibition at 10 µM in the assay with SW480 colon cancer cells and in the assay on IL-6 in THP-1 cells were 1.5% and 43%, respectively. For the same compound, the half-maximal effective concentration (EC50) was more than 10 µM with SW480 colon cancer cells, 2.7 µM in assay [1] and more than 10 µM with IL-6 in THP-1 cells.
In the case of `CN(C)c1cncc(-c2ccc3[nH]nc(-c4nc5c(-c6cccs6)cncc5[nH]4)c3n2)c1` [Compound 315, N,N-Dimethyl-5-(3-(7-(thiophen-2-yl)-3H-imidazo[4,5-c]pyridin-2-yl)-1H-pyrazolo[4,3-b]pyridin-5-yl)pyridin-3-amine], the inhibition at 10 µM in the assay with SW480 colon cancer cells is 43.8%; in assay [1] it was 34.3%. For the same compound, the EC50 was more than 10 µM in the assay on SW480 colon cancer cells, more than 10 µM in assay [1] and 0.031 µM with IL-6 in THP-1 cells.
